Assay results as given in patent publication US11845782B2, “Relaxin fusion polypeptides and uses thereof” (MedImmune Limited, priority 2017, dated 2023).

Experiments:
[1] = intravenous administration, cited from earlier work
[2] = tested on: isoproterenol-induced cardiac hypertrophy; assay: Isoproterenol-induced cardiac hypertrophy and fibrosis in mice (Example 8); format: in vivo, C57BL/6J male mice; settings: given concomitantly with isoproterenol 15 mg/kg/day, 2 weeks
Experimental: A total of 6 study groups with n=8 mice (C57BL/6J male mice) per group were performed. The groups were: vehicle, Fc_hRLX2_15-15AA, isoproterenol, isoproterenol+enalapril, isoproterenol+recombinant human relaxin 2, and isoproterenol+Fc_hRLX2_15-15AA. Drugs and vehicle were delivered by Alzet minipumps (model 1002; rate: 0.25 μl/hr (±0.05), 6 μl one day @37° C.) or subcutaneous injection for Fc_hRLX2_15-15AA.
Isoproterenol was made as follows: A 500 mM solution (123.9 mg/ml) freshly in 0.0002% Na-Asc saline, […] filtered). The final [Iso] concentration in minipump: 15 mg/kg/day=15 mg/247.72/6 μl/1000 g=10.1 mM per gram of body weight (BVV). Vehicle was 0.0002% Na-ascorbate, Sigma catalog #A7631.
Enalapril was made as follows: Enalapril is used as maleate salt, MW of 492.52, Sigma catalog #E6888. A 200 mM stock solution (98.5 mg/ml) freshly in methanol, […] filtered. The final concentration in minipump: 2.5 mg/kg/day=2.5 mg/492.52/6 μl/1000 g=0.846 mM per gram of body weight (BVV), i.e., one minipump for 30 gram of mouse will need 19.0 μl of 200 mM Ena (150 μl×0.846/200 mM×30 g BW).
Isoproterenol+Enalapril: Isoproterenol and enalapril made as described above were included in the pump.
At the end of the study, body weight, heart weight, lung weight, and tibia length were measured. Additionally, histology and collagen assays were performed using the heart samples.
Fibrosis was measured based on the detection of hydroxyproline (Total collagen assay, QuickZyme Biosciences). Histology (H & E and Masson Trichrome) was also carried out on formalin treated heart tissue following 2 weeks of treatments.

[3] = tested on: VEGF expression in THP-1 cells; assay: VEGF mRNA induction in THP-1 cells, quantitative real-time PCR (Example 4); format: cell-based, human; settings: 0.01, 0.06, and 10 ng/ml; 2.5 h
Experimental: The ability of the Relaxin 2 fusion polypeptides to induce the expression of VEGF, a known downstream target of Relaxin 2 (Xiao et al., 2013), was assayed. The expression of VEGF RNA in THP-1 cells (Catalogue number TIB-202, ATCC) was analyzed by quantitative real-time PCR. A total of […] was seeded in a 24-well flat bottom plate (Catalogue number 353226, Corning) in 400 μl test media (RPMI-1640 without phenol red, 0.5% FBS, 1% Pen/Strep and 0.05 mM of 2-mercaptoethanol). After 24 h incubation at 37° C., 5% CO2, human relaxin-2 (Catalogue number 3956-RN, R&D Systems) or Fc-hRelaxin-2 fusion polypeptides, were added to the cells in the plate for 2.5 h at 37° C. RNA isolation and purification from THP-1 cells was performed using Qiagen's QiaShredder (Catalogue number 79656, Qiagen) and RNA Plus Mini Kit (Catalogue number 74134, Qiagen), following the manufacturer's protocol. The mRNA concentrations were measured by NanoDrop (Thermofisher) and samples were normalized to the same starting concentration (range between RT-PCR set up; 50-20 ng/μl). […] The relative fold change in VEGF mRNA level was calculated by the comparative Ct method using GAPDH expression for normalization. Results were calculated as fold changes over no treatment control. […] Data was analyzed by paired two tailed t-test utilizing Prism GraphPad, V6.

[4] = Mouse PK profile, FcRn transgenic mouse, Fc capture and Relaxin detection ELISA (Example 6); format: in vivo; settings: IV or SC, 6 mg/kg

For serelaxin, the “proportion of patients with significant blood pressure drop (>40 mm Hg)” value [1] is listed as “approximately one third” and the “markers of cardiac, renal and hepatic damage and congestion” value ([1]; patients) is listed as “improved”.

In the case of `CCOC(=O)[C@H](CCc1ccccc1)N[C@@H](C)C(=O)N1CCC[C@H]1C(=O)O` [enalapril], the “isoproterenol-induced increase in cardiac hypertrophy (HW/TL)” value [2] is reported as “significantly attenuated” and the “isoproterenol-induced increase in fibrosis (collagen content)” value [2] is reported as “significantly attenuated”.

With “rhRLX2: Recombinant human Relaxin-2, R&D Systems (catalogue 6586-RN-025; 3956-RN in VEGF assay), positive control; mature A/B chain array (chain 1 QLYSALANKCCHVGCTKRSLARFC; chain 2 DSWMEEVIKLCGRELVRAQIAICGMSTWS)” the “isoproterenol-induced increase in cardiac hypertrophy (HW/TL)” value [2] was “significantly attenuated”, the “isoproterenol-induced increase in fibrosis (collagen content)” value [2] was “significantly attenuated” and the “VEGF transcripts in THP-1 cells vs no treatment control” value [3] was “significantly increased”.

B1: Fc-YTE-hRLX2-15-15AA: As Fc_hRLX2_15-15AA with YTE mutations in Fc; SEQ ID NO. 22 (protein)
chain: DKTHTCPPCPAPELLGGPSVFLFPPKPKDTLYITREPEVTCVVVDVSHEDPEVKFNWYVDGVEVHNAKTKPREEQYNSTYRVVSVLTVLHQDWLNGKEYKCKVSNKALPAPIEKTISKAKGQPREPQVYTLPPSRDELTKNQVSLTCLVKGFYPSDIAVEWESNGQPENNYKTTPPVLDSDGSFFLYSKLTVDKSRWQQGNVFSCSVMHEALHNHYTQKSLSLSPGKGGGGSGGGGSGGGGSQLYSALANKCCHVGCTKRSLARFCGGGGSGGGGSGGGGSSWMEEVIKLCGRELVRAQIAICGMSTWS
modifications: fusion protein
In the case of B1, the “half-life offered by the YTE mutations” value [4] is reported as “extended half-life”.

B2: Fc-YTE-FQQ_hRLX2_15-15A: As Fc_hRLX2_15-15AA with YTE and FQQ mutations in Fc; SEQ ID NO. 26 (protein)
chain: DKTHTCPPCPAPEFQGGPSVFLFPPKPKDTLYITREPEVTCVVVDVSHEDPEVKFNWYVDGVEVHNAKTKPREEQYNSTYRVVSVLTVLHQDWLNGKEYKCQVSNKALPAPIEKTISKAKGQPREPQVYTLPPSRDELTKNQVSLTCLVKGFYPSDIAVEWESNGQPENNYKTTPPVLDSDGSFFLYSKLTVDKSRWQQGNVFSCSVMHEALHNHYTQKSLSLSPGKGGGGSGGGGSGGGGSQLYSALANKCCHVGCTKRSLARFCGGGGSGGGGSGGGGSSWMEEVIKLCGRELVRAQIAICGMSTWS
modifications: fusion protein
For B2, the “half-life offered by the YTE mutations” value [4] was “extended half-life”.

B3: Fc-YTE-TM_hRLX2_15-15A: As Fc_hRLX2_15-15AA with YTE and TM mutations in Fc; SEQ ID NO. 24 (protein)
chain: DKTHTCPPCPAPEFEGGPSVFLFPPKPKDTLYITREPEVTCVVVDVSHEDPEVKFNWYVDGVEVHNAKTKPREEQYNSTYRVVSVLTVLHQDWLNGKEYKCKVSNKALPASIEKTISKAKGQPREPQVYTLPPSRDELTKNQVSLTCLVKGFYPSDIAVEWESNGQPENNYKTTPPVLDSDGSFFLYSKLTVDKSRWQQGNVFSCSVMHEALHNHYTQKSLSLSPGKGGGGSGGGGSGGGGSQLYSALANKCCHVGCTKRSLARFCGGGGSGGGGSGGGGSSWMEEVIKLCGRELVRAQIAICGMSTWS
modifications: fusion protein
In the case of B3, the “half-life offered by the YTE mutations” value [4] is reported as “extended half-life”.
